Measurements as given in publication PMC5053523, “In Vitro Antibacterial Activity of Rhodanine Derivatives against Pathogenic Clinical Isolates” (PLoS ONE, 2016).
Converted amounts (≈) assume the structure as drawn. Read-outs that look alike come from different tables or passages of the source.

Tests used:
Assay type in all cases: cell-based
Candida albicans = assay: MIC against Candida albicans; conditions: table prints none, read-out: MIC
B. licheniformis = assay: Broth microdilution MIC/MBC, B. licheniformis; conditions: Bacillus licheniformis; for MBC: read-out: MBC; for MIC: read-out: MIC
Clostridium difficile = assay: MIC against Clostridium difficile, anaerobic broth dilution; conditions: Clostridioides difficile
In short: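 Clinical C. difficile isolates grown anaerobically 48 h at 37 °C, suspended to 0.5 McFarland and diluted 1:300 in pre-reduced supplemented Brain Heart Infusion broth. Compounds serially diluted; plates incubated anaerobically at 37 °C for 48 h. MIC = lowest concentration with no visible growth.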

Mycobacterium smegmatis = assay: Broth microdilution MIC/MBC, Mycobacterium smegmatis; conditions: Mycolicibacterium smegmatis, ATCC14468, M. Smegmatis ATCC 14468
Bacillus anthracis = assay: microbe, parasite or virus in culture
[1] = test system: vancomycin resistant enterococci (VRE); assay: Broth microdilution MIC50/MIC90, VRE panel; conditions: 10 VRE strains; for MIC90: read-out: MIC 90
[2] = test system: Vancomycin Resistant Staphylococcus aureus (VRSA); assay: Broth microdilution MIC/MBC, VRSA; conditions: for MBC / MIC: VRSA
Klebsiella pneumoniae = assay: MIC with/without PMBN, Klebsiella pneumoniae
In short: (§1)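 Read-out is the MIC, determined with sub-inhibitory colistin or polymixin B nonapeptide co-applied to permeabilize the outer membrane of Gram-negative bacteria.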

[3] = test system: methicillin-resistant Staphylococcus aureus (MRSA); assay: Broth microdilution MIC/MBC, MRSA
Acinetobacter baumannii = assay: MIC with/without sub-MIC colistin, Acinetobacter baumannii
In short: as §1

[4] = NCIB9375, B. licheniformis Gibson 46 (NCIB 9375) NR-2494
[5] = NRS712, B. licheniformis NRS 712 NR-2499

SMILES: O=C(O)[C@H](Cc1ccccc1)N1C(=O)/C(=C/c2cccc(-c3ccc(Cl)c(Cl)c3)c2)SC1=S [Rh 2]
- MIC (Candida albicans; ATCC10231, C. albicans ATCC 10231, unit from abstract): > 64 µM
- MIC (Candida albicans; C. albicans NR 29434, unit from abstract): > 64 µM
- MIC (Candida albicans; C. albicans NR 29435, unit from abstract): > 64 µM
- MIC (Candida albicans; C. albicans NR29437, unit from abstract): > 64 µM
- MIC (Candida albicans; C. albicans NR29438, unit from abstract): > 64 µM
- MIC (Candida albicans; C. albicans NR 29446, unit from abstract): > 64 µM
- MIC (Candida albicans; C. albicans NR 29448, unit from abstract): > 64 µM
- MIC (Candida albicans; C. albicans NR 29449, unit from abstract): > 64 µM
- MIC (Candida albicans; C. albicans NR 29453, unit from abstract): > 64 µM
- MIC (Candida albicans; C. albicans NR 294436, unit from abstract): > 64 µM
- MBC (B. licheniformis; [4]): 2 µM (≈ 1.03 µg/mL)
- MIC (B. licheniformis; [4]): 2 µM (≈ 1.03 µg/mL)
- MBC (B. licheniformis; [5]): 4 µM (≈ 2.06 µg/mL)
- MIC (B. licheniformis; [5]): 4 µM (≈ 2.06 µg/mL)
- MIC (Clostridium difficile; C. difficile HM-88): 4 µM (≈ 2.06 µg/mL)
- MIC (Clostridium difficile; C. difficile HM-745): 2 µM (≈ 1.03 µg/mL)
- MIC (Clostridium difficile; C. difficile HM-746): 2 µM (≈ 1.03 µg/mL)
- MIC (Clostridium difficile; C. difficile Isolate-1 NR-13427): 2 µM (≈ 1.03 µg/mL)
- MIC (Clostridium difficile; C. difficile Toxigenic Strain P8 NR-32888): 8 µM (≈ 4.12 µg/mL)
- MBC (Mycobacterium smegmatis; read-out: MBC): 8 µM (≈ 4.12 µg/mL)
- MIC (Mycobacterium smegmatis; read-out: MIC): 4 µM (≈ 2.06 µg/mL)
- MBC (Bacillus anthracis; Bacillus anthracis AMES35): 2 µM (≈ 1.03 µg/mL)
- MIC (Bacillus anthracis; Bacillus anthracis AMES35): 2 µM (≈ 1.03 µg/mL)
- MBC (Bacillus anthracis; Bacillus anthracis UM23): 2 µM (≈ 1.03 µg/mL)
- MIC (Bacillus anthracis; Bacillus anthracis UM23): 2 µM (≈ 1.03 µg/mL)
- MBC (Bacillus anthracis; Bacillus anthracis Weybridge): 2 µM (≈ 1.03 µg/mL)
- MIC (Bacillus anthracis; Bacillus anthracis Weybridge): 2 µM (≈ 1.03 µg/mL)
- MIC90 [1]: 4 µM (≈ 2.06 µg/mL)
- MIC90 ([1]; Enterococcus, VRE): 8 µM (≈ 4.12 µg/mL)
- MIC50 ([1]; Enterococcus, read-out: MIC 50): 4 µM (≈ 2.06 µg/mL)
- MIC50 ([2]; 15 VRSA strains, read-out: MIC 50): 4 µM (≈ 2.06 µg/mL)
- MIC90 ([2]; 15 VRSA strains, read-out: MIC 90): 4 µM (≈ 2.06 µg/mL)
- MBC ([2]; VRSA 1, read-out: MBC): 8 µM (≈ 4.12 µg/mL)
- MIC ([2]; VRSA 1, read-out: MIC): 4 µM (≈ 2.06 µg/mL)
- MBC ([2]; VRSA 2, read-out: MBC): 4 µM (≈ 2.06 µg/mL)
- MIC ([2]; VRSA 2, read-out: MIC): 4 µM (≈ 2.06 µg/mL)
- MBC ([2]; VRSA 3a, read-out: MBC): 16 µM (≈ 8.23 µg/mL)
- MIC ([2]; VRSA 3a, read-out: MIC): 4 µM (≈ 2.06 µg/mL)
- MBC ([2]; VRSA 3b, read-out: MBC): 4 µM (≈ 2.06 µg/mL)
- MIC ([2]; VRSA 3b, read-out: MIC): 4 µM (≈ 2.06 µg/mL)
- MBC ([2]; VRSA 4, read-out: MBC): 4 µM (≈ 2.06 µg/mL)
- MIC ([2]; VRSA 4, read-out: MIC): 4 µM (≈ 2.06 µg/mL)
- MBC ([2]; VRSA 5, read-out: MBC): 64 µM (≈ 32.9 µg/mL)
- MIC ([2]; VRSA 5, read-out: MIC): 4 µM (≈ 2.06 µg/mL)
- MBC ([2]; VRSA 6, read-out: MBC): 16 µM (≈ 8.23 µg/mL)
- MIC ([2]; VRSA 6, read-out: MIC): 4 µM (≈ 2.06 µg/mL)
- MBC ([2]; VRSA 7, read-out: MBC): 32 µM (≈ 16.5 µg/mL)
- MIC ([2]; VRSA 7, read-out: MIC): 4 µM (≈ 2.06 µg/mL)
- MBC ([2]; VRSA 8, read-out: MBC): 8 µM (≈ 4.12 µg/mL)
- MIC ([2]; VRSA 8, read-out: MIC): 4 µM (≈ 2.06 µg/mL)
- MBC ([2]; VRSA 9, read-out: MBC): 32 µM (≈ 16.5 µg/mL)
- MIC ([2]; VRSA 9, read-out: MIC): 8 µM (≈ 4.12 µg/mL)
- MBC ([2]; VRSA 10, read-out: MBC): 32 µM (≈ 16.5 µg/mL)
- MIC ([2]; VRSA 10, read-out: MIC): 4 µM (≈ 2.06 µg/mL)
- MBC ([2]; VRSA 11a, read-out: MBC): 4 µM (≈ 2.06 µg/mL)
- MIC ([2]; VRSA 11a, read-out: MIC): 4 µM (≈ 2.06 µg/mL)
- MBC ([2]; VRSA 11b, read-out: MBC): 64 µM (≈ 32.9 µg/mL)
- MIC ([2]; VRSA 11b, read-out: MIC): 4 µM (≈ 2.06 µg/mL)
- MBC ([2]; VRSA 12, read-out: MBC): 32 µM (≈ 16.5 µg/mL)
- MIC ([2]; VRSA 12, read-out: MIC): 4 µM (≈ 2.06 µg/mL)
- MBC ([2]; VRSA 13, read-out: MBC): 64 µM (≈ 32.9 µg/mL)
- MIC ([2]; VRSA 13, read-out: MIC): 4 µM (≈ 2.06 µg/mL)
- MIC (Klebsiella pneumoniae; Klebsiella pneumoniae ATCC BAA 1706, PMBN (+) 4 μg/mL): >64 µM
- MIC (Klebsiella pneumoniae; Klebsiella pneumoniae ATCC BAA 2146, PMBN (+) 4 μg/mL): >64 µM
- MIC (Klebsiella pneumoniae; Klebsiella pneumoniae, BAA1706): > 128 µM
- MIC (Klebsiella pneumoniae; Klebsiella pneumoniae, BAA2146): > 128 µM
- MIC50 ([3]; 11 MRSA strains): 4 µM (≈ 2.06 µg/mL)
- MIC90 ([3]; 11 MRSA strains): 4 µM (≈ 2.06 µg/mL)
- MBC ([3]; MRSA NRS 1): 4 µM (≈ 2.06 µg/mL)
- MIC ([3]; MRSA NRS 1): 4 µM (≈ 2.06 µg/mL)
- MBC ([3]; MRSA NRS 19): 4 µM (≈ 2.06 µg/mL)
- MIC ([3]; MRSA NRS 19): 4 µM (≈ 2.06 µg/mL)
- MBC ([3]; MRSA NRS 37): 4 µM (≈ 2.06 µg/mL)
- MIC ([3]; MRSA NRS 37): 4 µM (≈ 2.06 µg/mL)
- MBC ([3]; MRSA NRS 107): 16 µM (≈ 8.23 µg/mL)
- MIC ([3]; MRSA NRS 107): 8 µM (≈ 4.12 µg/mL)
- MBC ([3]; MRSA NRS 119): 4 µM (≈ 2.06 µg/mL)
- MIC ([3]; MRSA NRS 119): 4 µM (≈ 2.06 µg/mL)
- MBC ([3]; MRSA NRS 382): 4 µM (≈ 2.06 µg/mL)
- MIC ([3]; MRSA NRS 382): 4 µM (≈ 2.06 µg/mL)
- MBC ([3]; MRSA NRS 383): 4 µM (≈ 2.06 µg/mL)
- MIC ([3]; MRSA NRS 383): 4 µM (≈ 2.06 µg/mL)
- MBC ([3]; MRSA NRS 384): 16 µM (≈ 8.23 µg/mL)
- MIC ([3]; MRSA NRS 384): 4 µM (≈ 2.06 µg/mL)
- MBC ([3]; MRSA NRS 385): 4 µM (≈ 2.06 µg/mL)
- MIC ([3]; MRSA NRS 385): 4 µM (≈ 2.06 µg/mL)
- MBC ([3]; MRSA NRS 386): 8 µM (≈ 4.12 µg/mL)
- MIC ([3]; MRSA NRS 386): 4 µM (≈ 2.06 µg/mL)
- MBC ([3]; MRSA NRS 387): 4 µM (≈ 2.06 µg/mL)
- MIC ([3]; MRSA NRS 387): 4 µM (≈ 2.06 µg/mL)
- MIC (Acinetobacter baumannii; Acinetobacter baumannii ATCC BAA747, colistin (+) […], read-out: MIC): >64 µM
- MIC (Acinetobacter baumannii; Acinetobacter baumannii ATCC BAA19606, colistin (+) […], read-out: MIC): >64 µM
- MIC (Acinetobacter baumannii; Acinetobacter baumannii, ATCCBAA747): > 128 µM
- MIC (Acinetobacter baumannii; Acinetobacter baumannii, ATCCBAA19606): > 128 µM
